In patent US7902219B2, “2-benzoylimidazopyridine derivatives, preparation and therapeutic use thereof” (Sanofi-Aventis, priority 2006, dated 2011):

Legend:
human NOT receptor = experiment: Binding to the human NOT receptor by SPR (surface plasmon resonance, Biacore S51); conditions: immobilized GST-NOT (NOT-FL) and His-Thr-NOT 329-598, 3.75 to 0.1 μM, 4° C.
Procedure: Evaluation of the Binding to the Human NOT Receptor The direct binding between compounds of the invention and the human NOT receptor was evaluated using the SPR (surface plasmon resonance) technique. In this test, the protein is immobilized covalently on the matrix and the test molecule is injected into the chamber containing the sensor chip. The signal is directly proportional to the amount of product bound to the protein. The binding tests were performed in a Biacore S51 machine (Biacore Inc., Piscataway N.J.). The entire GST-NOT protein (NOT-FL) was supplied by Invitrogen (PV3265). The domain for binding to the NOT ligand (His-Thr-NOT 329-598) was expressed and purified as described in Nature 423, 555-560. The two proteins, diluted to a concentration of 20 μg/ml in pH 5.0 acetate buffer containing 5 mM of DTT, were immobilized on a surface of carboxymethyl 5′ dextran (CM5 sensor chip, Biacore Inc.) via amine coupling according to the protocol recommended by Biacore, eluting with an HBS-N buffer (10 mM HEPES, 0.15 M NaCl, 3 mM EDTA, pH 7.4). Approximately 10 000-15 000 resonance units (RU) of the proteins are captured on the surface of the sensor chip CM5. […] Each concentration of product is injected at 4° C. for 1 minute at 30 μl/min. The dissociation was recorded for 5 minutes without any other surface regeneration procedure. […]

murine Nurr1 receptor = biological target: T1, murine Nurr1 receptor (Mus musculus, UniProt Q06219); experiment: In vitro activity on N2A cells (NBRE-luciferase reporter); format: cell-based; conditions: N2A-8NBRE-luciferase cells, products incubated 24 hours
T1 construct: endogenously expressing the murine Nurr1 receptor; host or cells: Neuro-2A (N2A) mouse neuroblastoma cells stably transfected with 8NBRE-luciferase
T1 sequence (Q06219 whole entry): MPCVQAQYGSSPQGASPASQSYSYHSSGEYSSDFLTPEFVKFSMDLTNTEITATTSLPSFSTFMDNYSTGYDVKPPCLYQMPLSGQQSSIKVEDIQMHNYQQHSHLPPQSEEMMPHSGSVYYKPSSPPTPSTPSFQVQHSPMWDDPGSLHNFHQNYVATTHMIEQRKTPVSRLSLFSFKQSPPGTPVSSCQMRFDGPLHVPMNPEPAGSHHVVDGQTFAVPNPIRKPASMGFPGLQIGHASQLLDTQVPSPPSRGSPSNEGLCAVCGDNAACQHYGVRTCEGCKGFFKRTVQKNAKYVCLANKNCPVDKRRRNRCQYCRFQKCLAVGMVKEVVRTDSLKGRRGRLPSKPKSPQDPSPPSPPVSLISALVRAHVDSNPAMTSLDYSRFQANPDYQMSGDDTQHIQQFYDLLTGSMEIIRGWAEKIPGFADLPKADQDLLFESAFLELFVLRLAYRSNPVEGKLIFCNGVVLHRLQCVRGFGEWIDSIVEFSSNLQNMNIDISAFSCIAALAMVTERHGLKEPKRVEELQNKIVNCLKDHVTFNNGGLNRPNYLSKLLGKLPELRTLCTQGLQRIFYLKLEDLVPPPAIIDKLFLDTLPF
Procedure: Evaluation of the in vitro Activity on N2A Cells
The tests consisted in evaluating the in vitro activity of the compounds of the invention on a cell line (N2A) endogenously expressing the murine Nurr1 receptor and stably transfected with the NOT binding response element (NBRE) coupled to the luciferase reporter gene. The EC50 values are between 0.01 and 1000 nM. The tests were performed according to the procedure described hereinbelow.
The cell line Neuro-2A is obtained from a standard commercial source (ATCC). The clone Neuro-2A was obtained from a spontaneous tumor originating from a strain of albino mice A by R. J Klebe et al. This line Neuro-2A is then stably transfected with 8NBRE-luciferase. The N2A-8NBRE cells are cultured to the point of confluence in 75 cm^2 culture flasks containing DMEM supplemented with 10% fetal calf serum, 4.5 g/L of glucose and 0.4 mg/ml of geneticin. After culturing for one week, the cells are recovered with 0.25% trypsin for 30 seconds and then resuspended in DMEM without phenol red, containing 4.5 g/L of glucose and 10% Hyclone defatted serum, and placed in white, transparent-based 96-well plates. The cells are deposited at a rate of 60 000 per well in 75 μL for 24 hours before adding the products. The products are applied in 25 μL and incubated for a further 24 hours. On the day of measurement, an equivalent volume (100 μL) of Steadylite is added to each well, and the wells are then left for 30 minutes to obtain complete lysis of the cells and maximum production of the signal. The plates are then measured in a microplate luminescence counter, after having been sealed with an adhesive film. The products are prepared in the form of a 10^−2 M stock solution, and then diluted in 100% of DMSO. Each concentration of product is prediluted in culture medium before incubation with the cells thus containing 0.625% final of DMSO.

affinity (classified by maximum binding level and kinetic parameters of binding to the immobilized protein) (human NOT receptor)	EC50 (murine Nurr1 receptor) [nM]	SMILES
moderate affinity	0.3	Cc1ccc2nc(C(=O)c3ccccc3)cn2c1.Cl [Compound 1, (6-Methylimidazo[1,2-a]pyridin-2-yl)(phenyl)methanone hydrochloride (1:1)]
moderate affinity	0.2	Br.CC(C)(O)c1ccc2nc(C(=O)c3ccccc3)cn2c1 [Compound 3, [6-(1-Hydroxy-1-methylethyl)imidazo[1,2-a]pyridin-2-yl] (phenyl)-methanone hydrobromide (1:1)]
	0.02	O=C(c1ccccc1)c1cn2cc(-c3ccccc3)ccc2n1 [Compound 6, Phenyl(6-phenylimidazo[1,2-a]pyridin-2-yl)methanone]
